According to ChEMBL document CHEMBL1275264, “The GABA(A) receptor as a target for photochromic molecules” (Bioorg Med Chem, 2010):
pKi: −log10 of the molar value.

Assays:
[1] = target: GABA A receptor alpha-4/beta-3/gamma-2 (Homo sapiens, UniProt P18507+P28472+P48169); assay: Binding affinity to human recombinant GABA alpha-4-beta-3-gamma-2 receptor; format: protein-complex assay
[2] = target: T1, GABA-A receptor; alpha-5/beta-3/gamma-2 (Homo sapiens, UniProt P18507+P28472+P31644); assay: Binding affinity to human recombinant GABA alpha-5-beta-3-gamma-2 receptor; format: protein-complex assay
T1 sequence (P18507 whole entry): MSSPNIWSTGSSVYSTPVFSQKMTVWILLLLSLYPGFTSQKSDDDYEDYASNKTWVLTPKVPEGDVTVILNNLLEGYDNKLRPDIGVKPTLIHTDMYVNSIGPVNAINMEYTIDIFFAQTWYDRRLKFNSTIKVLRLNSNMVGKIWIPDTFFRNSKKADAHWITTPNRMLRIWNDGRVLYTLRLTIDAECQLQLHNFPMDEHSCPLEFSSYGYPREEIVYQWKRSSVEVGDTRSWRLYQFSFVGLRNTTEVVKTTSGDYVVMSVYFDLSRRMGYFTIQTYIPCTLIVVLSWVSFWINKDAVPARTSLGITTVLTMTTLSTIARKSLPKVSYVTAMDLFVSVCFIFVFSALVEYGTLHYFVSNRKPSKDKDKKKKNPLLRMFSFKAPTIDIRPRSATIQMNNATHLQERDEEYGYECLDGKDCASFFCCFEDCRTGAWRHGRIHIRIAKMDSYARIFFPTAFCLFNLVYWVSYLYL
T1 sequence (P28472 whole entry): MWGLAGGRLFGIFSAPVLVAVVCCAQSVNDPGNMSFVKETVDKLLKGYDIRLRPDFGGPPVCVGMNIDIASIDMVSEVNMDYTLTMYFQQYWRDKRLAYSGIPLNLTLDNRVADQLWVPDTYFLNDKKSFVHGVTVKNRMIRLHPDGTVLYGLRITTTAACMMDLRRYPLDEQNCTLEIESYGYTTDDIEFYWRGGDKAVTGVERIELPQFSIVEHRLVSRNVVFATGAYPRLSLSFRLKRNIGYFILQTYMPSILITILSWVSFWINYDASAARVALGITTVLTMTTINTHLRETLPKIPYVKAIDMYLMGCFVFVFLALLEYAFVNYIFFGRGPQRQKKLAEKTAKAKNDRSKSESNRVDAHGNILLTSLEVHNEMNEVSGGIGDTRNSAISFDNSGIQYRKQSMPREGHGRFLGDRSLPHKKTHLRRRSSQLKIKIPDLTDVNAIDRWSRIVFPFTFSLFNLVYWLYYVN
T1 sequence (P31644 whole entry): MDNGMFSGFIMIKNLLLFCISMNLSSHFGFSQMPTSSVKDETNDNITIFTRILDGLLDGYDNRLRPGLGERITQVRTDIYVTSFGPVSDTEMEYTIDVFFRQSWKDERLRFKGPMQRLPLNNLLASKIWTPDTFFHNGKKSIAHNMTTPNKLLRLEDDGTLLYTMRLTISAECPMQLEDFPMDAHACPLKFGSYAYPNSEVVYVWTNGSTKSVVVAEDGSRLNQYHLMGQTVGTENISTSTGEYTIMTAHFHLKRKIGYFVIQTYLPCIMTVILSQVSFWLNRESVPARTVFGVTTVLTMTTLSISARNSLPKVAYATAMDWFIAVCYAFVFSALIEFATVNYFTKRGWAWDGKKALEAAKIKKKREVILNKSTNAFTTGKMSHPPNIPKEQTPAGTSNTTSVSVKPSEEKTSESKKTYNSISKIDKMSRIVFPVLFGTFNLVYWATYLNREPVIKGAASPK

Chain of GABA A receptor alpha-4/beta-3/gamma-2 (P48169 whole entry, one chain of several): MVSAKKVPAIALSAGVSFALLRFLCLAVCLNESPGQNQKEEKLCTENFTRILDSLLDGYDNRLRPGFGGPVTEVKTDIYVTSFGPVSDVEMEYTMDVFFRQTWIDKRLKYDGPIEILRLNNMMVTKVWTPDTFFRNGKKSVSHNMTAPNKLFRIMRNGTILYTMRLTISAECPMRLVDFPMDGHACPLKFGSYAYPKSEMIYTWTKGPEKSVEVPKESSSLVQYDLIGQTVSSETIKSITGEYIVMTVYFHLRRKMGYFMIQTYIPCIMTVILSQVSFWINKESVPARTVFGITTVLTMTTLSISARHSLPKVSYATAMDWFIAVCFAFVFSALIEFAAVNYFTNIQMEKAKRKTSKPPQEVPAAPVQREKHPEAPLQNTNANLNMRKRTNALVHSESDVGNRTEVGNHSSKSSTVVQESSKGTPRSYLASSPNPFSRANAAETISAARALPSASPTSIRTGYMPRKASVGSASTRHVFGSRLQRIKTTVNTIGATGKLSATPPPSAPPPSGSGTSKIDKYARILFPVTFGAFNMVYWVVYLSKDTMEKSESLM

SMILES | pKi [1] | pKi [2]
CC(=O)c1ncn2c1CN(C)C(=O)c1cc(Cl)ccc1-2 | 5.58 | 4.53
COCc1ncn2c1CN(C)C(=O)c1cc(Cl)ccc1-2 | 7.41 | < 6.52
